≈ marks a conversion by molar mass, not a printed value.
How the values were obtained:
Klebsiella pneumoniae = assay: Antibacterial activity against Klebsiella pneumoniae; format: functional
Enterococcus faecium = assay: Antibacterial activity against Enterococcus faecium; format: functional
Enterobacter cloacae = assay: Antibacterial activity against Enterobacter cloacae; format: functional
Proteus vulgaris = assay: Antibacterial activity against Proteus vulgaris; format: functional
Escherichia coli = assay: Antibacterial activity against Escherichia coli; format: functional
Providencia rettgeri = assay: Antibacterial activity against Providencia rettgeri; format: functional
[1] = Cytotoxicity against CHO cells; format: cell-based, Cricetulus griseus; details: chinese hamster
Enterococcus faecalis = assay: Antibacterial activity against Enterococcus faecalis; format: functional
Klebsiella aerogenes = assay: Antibacterial activity against Enterobacter aerogenes; format: functional
Staphylococcus aureus [2] = assay: Antibacterial activity against methicillin-resistant Staphylococcus aureus; format: functional
Staphylococcus aureus [3] = assay: Antibacterial activity against methicillin-sensitive Staphylococcus aureus; format: functional
[4] = system: Staphylococcus epidermidis; assay: Antibacterial activity against methicillin-sensitive Staphylococcus epidermidis; format: functional
Staphylococcus aureus [5] = assay: Antibacterial activity against Methicillin-resistant Staphylococcus aureus USA200 by CLSI-based microdilution method; format: functional
Staphylococcus aureus [6] = assay: Antibacterial activity against Methicillin-resistant Staphylococcus aureus USA300 by CLSI-based microdilution method; format: functional
Staphylococcus aureus [7] = assay: Antibacterial activity against Methicillin-resistant Staphylococcus aureus USA600 by CLSI-based microdilution method; format: functional
Staphylococcus aureus [8] = assay: Antibacterial activity against wild type Methicillin-resistant Staphylococcus aureus by CLSI-based microdilution method; format: functional
Staphylococcus aureus [9] = assay: Antibacterial activity against Methicillin-resistant Staphylococcus aureus USA100 by CLSI-based microdilution method; format: functional
Staphylococcus aureus [10] = assay: Antibacterial activity against Methicillin-resistant Staphylococcus aureus incubated for 24 hrs by broth microdilution method; format: functional
Staphylococcus aureus [11] = assay: Antibacterial activity against methicillin-resistant Staphylococcus aureus ATCC 43300 incubated for 18 hrs; format: functional
Staphylococcus aureus [12] = assay: Resistance index, ratio of MIC for antibacterial activity against Staphylococcus aureus ATCC 43300 incubated for 18 hrs to MIC for antibacterial activity against Staphylococcus aureus ATCC 25923 incubated for 18 hrs; format: functional
Staphylococcus aureus [13] = assay: Antibacterial activity against Methicillin-resistant Staphylococcus aureus 1 incubated for 16 hrs by agar dilution method; format: functional
Enterococcus [14] = assay: Antibacterial activity against Vancomycin-resistant enterococcus 1 incubated for 16 hrs by agar dilution method; format: functional
Enterococcus [15] = assay: Antibacterial activity against Vancomycin-resistant enterococcus 2 incubated for 16 hrs by agar dilution method; format: functional
Staphylococcus aureus [16] = assay: Antibacterial activity against Methicillin-resistant Staphylococcus aureus 2 incubated for 16 hrs by agar dilution method; format: functional
Staphylococcus aureus [17] = assay: Antibiofilm activity against methicillin-resistant Staphylococcus aureus ATCC BAA-44 incubated for 24 hrs by crystal violet-staining based assay; format: functional, organism-based; details: ATCC BAA-44, 24 h
Staphylococcus aureus [18] = assay: Antibiofilm activity against methicillin-resistant Staphylococcus aureus ATCC BAA-44 assessed as disruption of preformed biofilms incubated for 24 hrs by CV-staining based assay; format: functional, organism-based; details: ATCC BAA-44, 24 h
Staphylococcus aureus [19] = assay: Potentiation of oxacillin-induced antibacterial activity against methicillin-resistant Staphylococcus aureus ATCC BAA-44 assessed as reduction in oxacillin MIC preincubated for 30 mins followed by oxacillin addition and measured after 16 hrs by broth microdilution method; format: functional; details: time 16.5 hrs
Staphylococcus aureus [20] = assay: Antibacterial activity against methicillin-resistant Staphylococcus aureus ATCC 33591 incubated for 18 hrs; format: functional
Staphylococcus aureus [21] = assay: Antibacterial activity against methicillin-susceptible Staphylococcus aureus ATCC 25923 incubated for 18 hrs; format: functional
Staphylococcus aureus [22] = assay: Potency index, ratio of linezolid MIC to compound MIC for antibacterial activity against methicillin-resistant Staphylococcus aureus ATCC 33591; format: functional
Staphylococcus aureus [23] = assay: Antibacterial activity against Staphylococcus aureus NRS119 incubated for 18 hrs by CLSI-based two fold agar dilution method; format: functional
Staphylococcus aureus [24] = assay: Antibacterial activity against Staphylococcus aureus NRS127 incubated for 18 hrs by CLSI-based two fold agar dilution method; format: functional
Staphylococcus aureus [25] = assay: Antibacterial activity against Staphylococcus aureus NRS121 incubated for 18 hrs by CLSI-based two fold agar dilution method; format: functional
Staphylococcus aureus [26] = assay: Antibacterial activity against Staphylococcus aureus NRS271 incubated for 18 hrs by CLSI-based two fold agar dilution method; format: functional

SMILES: COc1c(N2C[C@@H]3CCCN(C(=O)Cn4cc(CN5C(=O)C(=O)c6ccccc65)nn4)[C@@H]3C2)c(F)cc2c(=O)c(C(=O)O)cn(C3CC3)c12
- MIC (Klebsiella pneumoniae): ≤ 0.03 µg/mL
- MIC (Enterococcus faecium): ≤ 0.03 µg/mL
- MIC (Enterobacter cloacae): ≤ 0.03 µg/mL
- MIC (Proteus vulgaris): ≤ 0.03 µg/mL
- MIC (Escherichia coli): ≤ 0.03 µg/mL
- MIC (Providencia rettgeri): ≤ 0.03 µg/mL
- CC50 [1]: 64 µg/mL (≈ 95.6 µM)
- MIC (Enterococcus faecalis): ≤ 0.03 µg/mL
- MIC (Klebsiella aerogenes): ≤ 0.03 µg/mL
- MIC (Staphylococcus aureus [2]): 1 µg/mL (≈ 1.49 µM)
- MIC (Staphylococcus aureus [3]): ≤ 0.03 µg/mL
- MIC [4]: ≤ 0.03 µg/mL

SMILES: NC[C@@H]1O[C@H](O[C@H]2[C@@H](O)[C@H](O[C@@H]3[C@@H](O)[C@H](N)C[C@H](N)[C@H]3O[C@H]3O[C@H](CN)[C@@H](O)[C@H](O)[C@H]3N)O[C@@H]2Cn2cc(COCCCCCCCCOCc3cn(C[C@H]4O[C@@H](O[C@@H]5[C@@H](O)[C@H](N)C[C@H](N)[C@H]5O[C@H]5O[C@H](CN)[C@@H](O)[C@H](O)[C@H]5N)[C@H](O)[C@@H]4O[C@H]4O[C@@H](CN)[C@@H](O)[C@H](O)[C@H]4N)nn3)nn2)[C@H](N)[C@@H](O)[C@@H]1O
- MIC (Staphylococcus aureus [5]): 25 µg/mL (≈ 16.6 µM)
- MIC (Staphylococcus aureus [6]): 25 µg/mL (≈ 16.6 µM)
- MIC (Staphylococcus aureus [7]): 25 µg/mL (≈ 16.6 µM)
- MIC (Staphylococcus aureus [8]): 25 µg/mL (≈ 16.6 µM)
- MIC (Staphylococcus aureus [9]): 25 µg/mL (≈ 16.6 µM)

SMILES: Cc1ccc(-n2cc(Cn3c4ccccc4c(=O)c4cc(C)ccc43)nn2)cc1
- MIC (Staphylococcus aureus [10]): 19.6 µg/mL (≈ 51.5 µM)

SMILES: CO/N=C1\C(=O)N(Cc2cn(CC(=O)N3CCC[C@H]4CN(c5c(F)cc6c(=O)c(C(=O)O)cn(C7CC7)c6c5OC)C[C@H]43)nn2)c2ccc(C)cc21
- MIC (Klebsiella pneumoniae): ≤ 0.03 µg/mL
- MIC (Enterococcus faecium): ≤ 0.03 µg/mL
- MIC (Enterobacter cloacae): ≤ 0.03 µg/mL
- MIC (Proteus vulgaris): ≤ 0.03 µg/mL
- MIC (Escherichia coli): ≤ 0.03 µg/mL
- MIC (Providencia rettgeri): ≤ 0.03 µg/mL
- CC50 [1]: 32 µg/mL (≈ 44.9 µM)
- MIC (Enterococcus faecalis): ≤ 0.03 µg/mL
- MIC (Klebsiella aerogenes): ≤ 0.03 µg/mL
- MIC (Staphylococcus aureus [2]): 1 µg/mL (≈ 1.4 µM)
- MIC (Staphylococcus aureus [3]): ≤ 0.03 µg/mL
- MIC [4]: ≤ 0.03 µg/mL

SMILES: NC[C@H]1O[C@@H](O[C@@H](Cn2cc(CCCCCCCCCCOc3ccc(C(=O)c4ccccc4)cc3)nn2)[C@H]2O[C@@H](n3ccc(=O)[nH]c3=O)[C@H](O)[C@@H]2O)[C@H](O)[C@@H]1O.O=C(O)C(F)(F)F
- MIC (Staphylococcus aureus [11]): 8 µg/mL
- Ratio (Staphylococcus aureus [12]): 1

SMILES: CC(C)C[C@H](C(=O)N[C@@H]1Cc2ccc(c(Cl)c2)Oc2cc3cc(c2O[C@@H]2O[C@H](CO)[C@@H](O)[C@H](O)[C@H]2O[C@H]2C[C@](C)(NCCCCCCCc4ccccc4)[C@H](O)[C@H](C)O2)Oc2ccc(cc2Cl)[C@@H](O)[C@@H]2NC(=O)[C@H](NC(=O)[C@@H]3NC(=O)[C@H](CC(=O)O)NC1=O)c1ccc(O)c(c1)-c1c(O)cc(O)cc1[C@H](C(=O)O)NC2=O)n1cc(COCCOCCOCc2cn([C@H](CC(C)C)C(=O)N[C@@H]3Cc4ccc(c(Cl)c4)Oc4cc5cc(c4O[C@@H]4O[C@H](CO)[C@@H](O)[C@H](O)[C@H]4O[C@H]4C[C@](C)(NCCCCCCCc6ccccc6)[C@H](O)[C@H](C)O4)Oc4ccc(cc4Cl)[C@@H](O)[C@@H]4NC(=O)[C@H](NC(=O)[C@@H]5NC(=O)[C@H](CC(=O)O)NC3=O)c3ccc(O)c(c3)-c3c(O)cc(O)cc3[C@H](C(=O)O)NC4=O)nn2)nn1
- MIC (Staphylococcus aureus [13]): 6.25 µg/mL (≈ 1.83 µM)
- MIC (Enterococcus [14]): 25 µg/mL (≈ 7.3 µM)
- MIC (Enterococcus [15]): 12.5 µg/mL (≈ 3.65 µM)
- MIC (Staphylococcus aureus [16]): 12.5 µg/mL (≈ 3.65 µM)

SMILES: CCCCCCc1ccc(C(=O)NCCn2cc(CCCCCc3c[nH]c(N)n3)nn2)cc1
- IC50 (Staphylococcus aureus [17]): 700 nM
- EC50 (Staphylococcus aureus [18]): 900 nM
- fold change (FC) (Staphylococcus aureus [19]): 64

SMILES: O=C(N[C@H](CO)[C@H](O)c1ccc([N+](=O)[O-])cc1)C(Cl)Cl [CHLORAMPHENICOL]
- MIC (Staphylococcus aureus [10]): 11.6 µg/mL (≈ 35.9 µM)

SMILES: CC(=O)NC[C@H]1CN(c2ccc(-n3cc(-c4ccncn4)nn3)c(F)c2)C(=O)O1
- MIC (Staphylococcus aureus [20]): 0.5 µg/mL (≈ 1.26 µM)
- MIC (Staphylococcus aureus [21]): 2 µg/mL (≈ 5.03 µM)
- Ratio (Staphylococcus aureus [22]): 4

SMILES: CC(C)C[C@@H](N)C(=O)N[C@H]1C(=O)N[C@@H](CC(N)=O)C(=O)N[C@H]2C(=O)N[C@H]3C(=O)N[C@H](C(=O)N[C@H](C(=O)O)c4cc(O)cc(O)c4-c4cc3ccc4O)[C@H](O)c3ccc(c(Cl)c3)Oc3cc2cc(c3O[C@@H]2O[C@H](CO)[C@@H](O)[C@H](O)[C@H]2O[C@H]2C[C@](C)(N)[C@H](O)[C@H](C)O2)Oc2ccc(cc2Cl)[C@H]1O
- MIC (Enterococcus [14]): > 50 µg/mL
- MIC (Enterococcus [15]): > 50 µg/mL

SMILES: CC(=O)NC[C@H]1CN(c2ccc(N3C[C@H]4CC(n5ccnn5)C[C@H]4C3)c(F)c2)C(=O)O1 (some centres undefined)
- MIC (Staphylococcus aureus [23]): 16 µg/mL (≈ 37.3 µM)
- MIC (Staphylococcus aureus [24]): 16 µg/mL (≈ 37.3 µM)
- MIC (Staphylococcus aureus [25]): 16 µg/mL (≈ 37.3 µM)
- MIC (Staphylococcus aureus [26]): 16 µg/mL (≈ 37.3 µM)

Source: ChEMBL document CHEMBL4706534, “1,2,3-Triazole-containing hybrids with potential antibacterial activity against methicillin-resistant Staphylococcus aureus (MRSA)” (Eur J Med Chem, 2020)
